This note sets out measurements from patent US12312332B2 (Merck Sharp & Dohme LLC., priority 2019, dated 2025).

SMILES strings stand for the structures.

The target in this assay is T1, human OX2R (Homo sapiens, UniProt O43614).
T1 construct: expressed in transfected cells; host or cells: Chinese hamster ovary (CHO) cells, kept under G418 selection
T1 sequence (O43614 1-444): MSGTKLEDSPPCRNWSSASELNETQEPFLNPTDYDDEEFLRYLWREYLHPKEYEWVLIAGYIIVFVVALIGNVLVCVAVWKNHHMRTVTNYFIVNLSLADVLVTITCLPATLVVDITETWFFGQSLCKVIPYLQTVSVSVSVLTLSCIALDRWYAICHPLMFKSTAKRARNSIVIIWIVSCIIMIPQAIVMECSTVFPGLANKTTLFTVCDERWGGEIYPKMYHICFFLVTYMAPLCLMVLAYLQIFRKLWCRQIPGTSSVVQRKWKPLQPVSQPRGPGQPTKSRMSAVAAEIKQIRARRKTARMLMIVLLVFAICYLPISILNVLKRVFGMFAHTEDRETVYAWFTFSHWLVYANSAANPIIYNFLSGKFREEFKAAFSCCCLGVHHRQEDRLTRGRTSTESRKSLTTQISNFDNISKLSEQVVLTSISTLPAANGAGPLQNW
Kind of assay: IPOne (IP-One) orexin receptor agonist assay in CHO cells expressing human OX2R. The class given is cell-based. The following applies: for EC50: CHO cells expressing human OX2R, IP-One detection, 2 hours incubation, four parameter logistic fit, read-out: OX2R Potency, EC50; for % max agonist effect (Emax): human OX2R, percentage of sample raw value/mean max effect (reference compound at 1 uM with 100% activity). From the text:
The utility of the compounds in accordance with the present invention as orexin receptor OX1R and/or OX2R agonists may be readily determined without undue experimentation by methodology well known in the art. Both the OX1R and/or OX2R G-coupled protein receptors (GPCRs) couple through the Gaq signaling pathway, which ultimately promotes calcium mobilization via inositol triphosphate (IP3) production. […] The utility of the compounds in accordance with the present invention as orexin receptor OX1R and/or OX2R agonists may be determined utilizing this assay.
In a typical experiment, the OX1 and OX2 receptor agonist activity is determined in accordance with the following general experimental method. Chinese hamster ovary (CHO) cells expressing human OX1R and/or the human OX2R were grown in Iscove's modified DMEM containing glutaMAX™, 1% G418, 100 U/mL penicillin, 100 μg/mL streptomycin and 10% heat-inactivated qualified fetal bovine serum (FBS). […] During this incubation, IP-one detection reagents were prepared (38:1:1 lysis buffer:D2:AB-cryptate reagents).
For each compound, data were fit to a four parameter logistic fit (ActivityBase software) and the EC50 was reported as the inflection point of the resulting curve. Percent effect for each test compound was determined as the percentage of sample raw value/mean max effect, where the mean max effect was derived from the mean raw value of 32 control wells per assay plate (using Orexin A (cat #003-30) at 1 μM for human OX1R and a reference compound at 1 uM with 100% activity previously established by comparison to Orexin A for human OX2R). The intrinsic orexin receptor agonist activity of a compound which may be used in the present invention may be determined by these assays.

For the molecule `CS(=O)(=O)N[C@H]1CCN(c2cncc(-c3ccccc3)c2)[C@H]1CO[C@H]1CC[C@@H](c2ccccc2)CC1` (relative stereo) [Example 1, N-((CIS)-2-((((CIS)-4-Phenylcyclohexyl)oxy)methyl)-1-(5-phenylpyridin-3-yl)pyrrolidin-3-yl)methanesulfonamide], the EC50 was more than 10 µM and the “% max agonist effect (Emax)” value was 35.7%.

As to `Cn1cc(N2CC[C@H](NS(C)(=O)=O)[C@@H]2CO[C@H]2CC[C@@H](c3ccccc3)CC2)cn1` (relative stereo) [Example 2, N-((CIS)-1-(1-methyl-1H-pyrazol-4-yl)-2-((((CIS)-4-phenylcyclohexyl)oxy)methyl)pyrrolidin-3-yl)methanesulfonamide], the EC50 turned out to be 0.896 µM and the “% max agonist effect (Emax)” value is 89.7%.

Turning to `CS(=O)(=O)N[C@H]1CCN(c2ccc(C(F)(F)F)cc2)[C@H]1CO[C@H]1CC[C@@H](c2ccccc2)CC1` (relative stereo) [Example 3, N-((CIS)-2-((((CIS)-4-phenylcyclohexyl)oxy)methyl)-1-(4-(trifluoromethyl)phenyl)pyrrolidin-3-yl)methanesulfonamide], the EC50 was more than 10 µM and the “% max agonist effect (Emax)” value came out at 7.9%.

For the molecule `CS(=O)(=O)N[C@H]1CCN(c2cncc3ccccc23)[C@H]1CO[C@H]1CC[C@@H](c2ccccc2)CC1` (relative stereo) [Example 4, N-((CIS)-1-(isoquinolin-4-yl)-2-((((CIS)-4-phenylcyclohexyl)oxy)methyl)pyrrolidin-3-yl)methanesulfonamide], the EC50 came out at 1.07 µM and the “% max agonist effect (Emax)” value is 97.3%.

For `Cn1cnc(N2CC[C@H](NS(C)(=O)=O)[C@@H]2CO[C@H]2CC[C@@H](c3ccccc3)CC2)n1` (relative stereo) [Example 5, N-((CIS)-1-(1-methyl-1H-1,2,4-triazol-3-yl)-2-((((CIS)-4-phenylcyclohexyl)oxy)methyl)pyrrolidin-3-yl)methanesulfonamide], the EC50 was determined as 5.96 µM and the “% max agonist effect (Emax)” value was found to be 80.4%.

Consider `COc1ccc(N2CC[C@H](NS(C)(=O)=O)[C@@H]2CO[C@H]2CC[C@@H](c3ccccc3)CC2)cc1` (relative stereo) [Example 6, N-((CIS)-1-(4-methoxyphenyl)-2-((((CIS)-4-phenylcyclohexyl)oxy)methyl)pyrrolidin-3-yl)methanesulfonamide], for which the half-maximal effective concentration (EC50) was 9.22 µM and the “% max agonist effect (Emax)” value is 25.1%.

In the case of `CS(=O)(=O)N[C@H]1CCN(c2cnc3cc[nH]c3c2)[C@H]1CO[C@H]1CC[C@@H](c2ccccc2)CC1` (relative stereo) [Example 7, N-((CIS)-2-((((CIS)-4-phenylcyclohexyl)oxy)methyl)-1-(1H-pyrrolo[3,2-b]pyridin-6-yl)pyrrolidin-3-yl)methanesulfonamide], the EC50 worked out at 0.0905 µM and the “% max agonist effect (Emax)” value amounted to 100.1%.

Take `Cn1cc(N2CC[C@H](NS(C)(=O)=O)[C@@H]2CO[C@H]2CC[C@@H](c3ccccc3)CC2)nn1` (relative stereo) [Example 8, N-((CIS)-1-(1-methyl-1H-1,2,3-triazol-4-yl)-2-((((CIS)-4-phenylcyclohexyl)oxy)methyl)pyrrolidin-3-yl)methanesulfonamide]: the EC50 stood at 0.152 µM and the “% max agonist effect (Emax)” value is on record as 101.2%.

With `Cc1ncc(N2CC[C@H](NS(C)(=O)=O)[C@@H]2CO[C@H]2CC[C@@H](c3ccccc3)CC2)s1` (relative stereo) [Example 9, N-((CIS)-1-(2-methylthiazol-5-yl)-2-((((CIS)-4-phenylcyclohexyl)oxy)methyl)pyrrolidin-3-yl)methanesulfonamide], the concentration giving a half-maximal response (EC50) turned out to be 1.9 µM and the “% max agonist effect (Emax)” value stood at 92.1%.

In the case of `Cc1nnc(N2CC[C@H](NS(C)(=O)=O)[C@@H]2CO[C@H]2CC[C@@H](c3ccccc3)CC2)s1` (relative stereo) [Example 10, N-((CIS)-1-(5-methyl-1,3,4-thiadiazol-2-yl)-2-((((CIS)-4-phenylcyclohexyl)oxy)methyl)pyrrolidin-3-yl)methanesulfonamide], the concentration for a half-maximal effect (EC50) was 0.242 µM and the “% max agonist effect (Emax)” value came out at 99.6%.

With `Cc1nc(-c2ccccc2)sc1N1CC[C@H](NS(C)(=O)=O)[C@@H]1CO[C@H]1CC[C@@H](c2ccccc2)CC1` (relative stereo) [Example 11, N-((CIS)-1-(4-methyl-2-phenylthiazol-5-yl)-2-((((CIS)-4-phenylcyclohexyl)oxy)methyl)pyrrolidin-3-yl)methanesulfonamide], the half-maximal effective concentration (EC50) stood at 3.45 µM and the “% max agonist effect (Emax)” value came to 87.7%.

Take `Cc1nnc(-c2ccc(N3CC[C@H](NS(C)(=O)=O)[C@@H]3CO[C@H]3CC[C@@H](c4ccccc4)CC3)cc2)o1` (relative stereo) [Example 12, N-((CIS)-1-(4-(5-methyl-1,3,4-oxadiazol-2-yl)phenyl)-2-((((CIS)-4-phenylcyclohexyl)oxy)methyl)pyrrolidin-3-yl)methanesulfonamide]: the EC50 amounted to 10.5 µM and the “% max agonist effect (Emax)” value is on record as 68.8%.

As for `CS(=O)(=O)N[C@H]1CCN(c2csc(-c3ccncc3)n2)[C@H]1CO[C@H]1CC[C@@H](c2ccccc2)CC1` (relative stereo) [Example 13, N-((CIS)-2-((((CIS)-4-phenylcyclohexyl)oxy)methyl)-1-(2-(pyridin-4-yl)thiazol-4-yl)pyrrolidin-3-yl)methanesulfonamide], the concentration giving a half-maximal response (EC50) was determined as 1.72 µM and the “% max agonist effect (Emax)” value was found to be 83.9%.

As to `Cn1cnc(N2CC[C@H](NS(C)(=O)=O)[C@@H]2CO[C@H]2CC[C@@H](c3ccccc3)CC2)n1` [Example 14, N-((2R,3S)-1-(1-Methyl-1H-1,2,4-triazol-3-yl)-2-((((CIS)-4-phenylcyclohexyl)oxy)methyl)-pyrrolidin-3-yl)methanesulfonamide], the 50% effective concentration (EC50) stood at 3.72 µM and the “% max agonist effect (Emax)” value is listed as 87.9%.

For `Cn1ncnc1N1CC[C@H](NS(C)(=O)=O)[C@@H]1CO[C@H]1CC[C@@H](c2ccccc2)CC1` [Example 15, N-((2R,3S)-1-(1-methyl-1H-1,2,4-triazol-5-yl)-2-((((CIS)-4-phenylcyclohexyl)oxy)methyl)pyrrolidin-3-yl)methanesulfonamide], the concentration giving a half-maximal response (EC50) came out at 0.0337 µM and the “% max agonist effect (Emax)” value is reported as 101.6%.

Turning to `CS(=O)(=O)N[C@H]1CCN(c2ccccn2)[C@H]1CO[C@H]1CC[C@@H](c2ccccc2)CC1` [Example 16, N-((2R,3S)-2-((((CIS)-4-phenylcyclohexyl)oxy)methyl)-1-(pyridin-2-yl)pyrrolidin-3-yl)methanesulfonamide], the EC50 is 0.174 µM and the “% max agonist effect (Emax)” value is 101.3%.

On to `CS(=O)(=O)N[C@H]1CCN(c2ccon2)[C@H]1CO[C@H]1CC[C@@H](c2ccccc2)CC1` [Example 17, N-((2R,3S)-1-(isoxazol-3-yl)-2-((((CIS)-4-phenylcyclohexyl)oxy)methyl)pyrrolidin-3-yl)methanesulfonamide], for which the EC50 turned out to be 0.102 µM and the “% max agonist effect (Emax)” value was 100.4%.

With `CS(=O)(=O)N[C@H]1CCN(c2ccns2)[C@H]1CO[C@H]1CC[C@@H](c2ccccc2)CC1` [Example 18, N-((2R,3S)-1-(isothiazol-5-yl)-2-((((CIS)-4-phenylcyclohexyl)oxy)methyl)pyrrolidin-3-yl)methanesulfonamide], the EC50 was 2.91 µM and the “% max agonist effect (Emax)” value is reported as 87.4%.

For the molecule `CS(=O)(=O)N[C@H]1CCN(c2ccsc2)[C@H]1CO[C@H]1CC[C@@H](c2ccccc2)CC1` [Example 19, N-((2R,3S)-2-((((CIS)-4-phenylcyclohexyl)oxy)methyl)-1-(thiophen-3-yl)pyrrolidin-3-yl)methanesulfonamide], the EC50 was 0.347 µM and the “% max agonist effect (Emax)” value amounted to 99.8%.

`CS(=O)(=O)N[C@H]1CCN(c2cccnc2)[C@H]1CO[C@H]1CC[C@@H](c2ccccc2)CC1` [Example 20, N-((2R,3S)-2-((((CIS)-4-phenylcyclohexyl)oxy)methyl)-1-(pyridin-3-yl)pyrrolidin-3-yl)methanesulfonamide]: the EC50 amounted to 0.0204 µM and the “% max agonist effect (Emax)” value was 101.0%.
